Format in all cases: cell-based
Details in all cases: 72 hours

Assay [1] has as its system U87MG (Human malignant glioblastoma cell). Briefly: In vitro anti-tumor cellular activity (MTT), U87MG. As to the method: (§1) After pouring the cell dissociation buffer to the centrifugetube, nutrient solution was added to stop digestion. The centrifugetube were centrifuged for 10 min under 800 r/min, the liquid supernatant was removed, 5 mL culture solution was added, after mixing by pipetting the cell, took 10 μL cell suspension to the cell counting plat, and adjusted the cell concentration to 10^4/well. Among the 96 wells, A1 is empty, 100 μL of cell suspension were added to the other wells. The 96 well plates were incubated in the incubator for 24 h. […] The 96-well plates were placed in an incubator and cultivated for 72 hours. (3) The culture media containing the compounds in the 96-well plates was discarded, and the cells were washed with phosphate buffered solution (PBS) twice. Each well was added with 100 μL MTT (tetrazole) (0.5 mg/mL), and then placed in an incubator to incubate for 4 hours, after which MTT solution was discarded and 100 μL dimethyl sulfoxide was added thereto.

In assay [2] the test system is H460 (human lung cancer cell). The assay can be described thus: In vitro anti-tumor cellular activity (MTT), H460. As to the method:
as §1

In assay [3] the test system is MKN-45 (human gastric carcinoma cell). Briefly: In vitro anti-tumor cellular activity (MTT), MKN-45. As to the method: as §1
Assay [4] has as its system MDA-MB-231 (human beast cancer cell). The assay can be described thus: In vitro anti-tumor cellular activity (MTT), MDA-MB-231. As to the method: as §1
In assay [5] the test system is SMMC-7721 (hepatoma cell). The assay can be described thus: In vitro anti-tumor cellular activity (MTT), SMMC-7721. The protocol:
as §1

In assay [6] the test system is HT-29 (colon cancer cell). The assay can be described thus: In vitro anti-tumor cellular activity (MTT), HT-29. The protocol:
as §1

Consider `COc1cccc(/C=N/NC(=O)Nc2ccc(Oc3ccnc4cc(OCCCN5CCC(C)CC5)c(OC)cc34)c(F)c2)c1` [Example 7], for which the “U87MG IC50” value in assay [1] was determined as 0.10 mg/L. In addition, the “H460 IC50” value in assay [2] turned out to be 0.0012 mg/L. In assay [3], the “MKN-45 IC50” value was found to be 0.0021 mg/L. Also, in assay [4], the “MDA-MB-231 IC50” value turned out to be 0.011 mg/L. Moreover, in assay [5], the “SMMC-7721 IC50” value came out at 0.13 mg/L. Besides, the “HT-29 IC50” value in assay [6] is 0.0006 mg/L.

As to `COc1cc2c(Oc3ccc(NC(=O)N/N=C/c4ccccc4)cc3F)ccnc2cc1OCCCN1CCN(C)CC1` [Example 4, (E)-N^1-(3-fluoro-4-(6-methoxy-7-(3-(4-methylpiperazin-1-yl)propoxy)quinoline-4-lyoxy)phenyl)-N^4-(benzaldehyde)semicarbazone], the “U87MG IC50” value in assay [1] turned out to be 0.25 mg/L. Further, the “H460 IC50” value in assay [2] turned out to be 0.084 mg/L. Further, the “MKN-45 IC50” value in assay [3] was found to be 0.11 mg/L. Moreover, the “MDA-MB-231 IC50” value in assay [4] stood at 0.066 mg/L. For the same compound, in assay [5], the “SMMC-7721 IC50” value was found to be 0.23 mg/L. The “HT-29 IC50” value in assay [6] is 0.093 mg/L.

Consider `COc1cc2c(Oc3ccc(NC(=S)N/N=C/c4ccccc4)cc3F)ccnc2cc1OCCCN1CCOCC1` [Example 38, (E)-N^1-(3-fluoro-4-(6-methoxy-7-(3-(morpholin-4-yl)propoxy)quinoline-4-yloxy)phenyl)-N^4-(benzaldehyde)thiosemicarbazone], for which, in assay [1], the “U87MG IC50” value amounted to 0.90 mg/L. Also, the “H460 IC50” value in assay [2] was determined as 0.16 mg/L. In assay [3], the “MKN-45 IC50” value was found to be 0.11 mg/L. Further, the “MDA-MB-231 IC50” value in assay [4] stood at 0.18 mg/L. For the same compound, the “SMMC-7721 IC50” value in assay [5] turned out to be 1.4 mg/L. The “HT-29 IC50” value in assay [6] amounted to 0.28 mg/L.

For `COc1cc2c(Oc3ccc(NC(=O)N/N=C/c4ccc(F)c(F)c4)cc3F)ccnc2cc1OCCCN1CCCC1` [Example 22, (E)-N^1-(3-fluoro-4-(6-methoxy-7-(3-(pyrrolidin-1-yl)propoxy)quinoline-4-lyoxy)phenyl)-N^4-(3,4-difluorobenzaldehyde)semicarbazone], the “U87MG IC50” value in assay [1] stood at 0.66 mg/L. For the same compound, the “H460 IC50” value in assay [2] was 0.29 mg/L. Also, the “MKN-45 IC50” value in assay [3] was determined as 0.37 mg/L. Besides, the “MDA-MB-231 IC50” value in assay [4] worked out at 0.31 mg/L. The “SMMC-7721 IC50” value in assay [5] worked out at 1.2 mg/L. Moreover, the “HT-29 IC50” value in assay [6] was determined as 0.19 mg/L.

For `N.N.[Cl][Pt][Cl]` [Cisplatin, reference compound], the “U87MG IC50” value in assay [1] was determined as 0.19 mg/L. Moreover, the “H460 IC50” value in assay [2] amounted to 0.23 mg/L. The “MKN-45 IC50” value in assay [3] was found to be 0.68 mg/L. The “MDA-MB-231 IC50” value in assay [4] worked out at 0.46 mg/L. The “SMMC-7721 IC50” value in assay [5] amounted to 0.90 mg/L. In assay [6], the “HT-29 IC50” value came out at 1.0 mg/L.

On to `COc1cc2c(Oc3ccc(NC(=O)N/N=C(\C)c4ccccc4)cc3F)ccnc2cc1OCCCN1CCCCC1` [Example 17, (E)-N^1-(3-fluoro-4-(6-methoxy-7-(3-(piperidin-1-yl)propoxy)quinoline-4-yloxy)phenyl)-N^4-(acetophenone)semicarbazone], for which the “U87MG IC50” value in assay [1] is 0.24 mg/L. Besides, in assay [2], the “H460 IC50” value turned out to be 0.069 mg/L. In assay [3], the “MKN-45 IC50” value is 0.072 mg/L. For the same compound, in assay [4], the “MDA-MB-231 IC50” value was 0.071 mg/L. Besides, in assay [5], the “SMMC-7721 IC50” value was 0.13 mg/L. In addition, the “HT-29 IC50” value in assay [6] was 0.0057 mg/L.

`COc1cc2c(Oc3ccc(NC(=O)N/N=C/c4ccccc4)cc3F)ccnc2cc1OCCCN1CCC(C)CC1` [Example 2, (E)-N^1-(3-fluoro-4-(6-methoxy-7-(3-(4-methylpiperidin-1-yl)propoxy)quinoline-4-yloxy)phenyl)-N^4-(benzaldehyde)semicarbazone]: in assay [1], the “U87MG IC50” value amounted to 0.31 mg/L. In assay [2], the “H460 IC50” value is 0.15 mg/L. In assay [3], the “MKN-45 IC50” value is 0.18 mg/L. Moreover, the “MDA-MB-231 IC50” value in assay [4] was 0.12 mg/L. For the same compound, the “SMMC-7721 IC50” value in assay [5] worked out at 0.43 mg/L. The “HT-29 IC50” value in assay [6] worked out at 0.17 mg/L.

In the case of `COc1cc2c(Oc3ccc(NC(=O)N/N=C/c4ccc(Cl)cc4Cl)cc3F)ccnc2cc1OCCCN1CCCC1` [Example 19, (E)-N^1-(3-fluoro-4-(6-methoxy-7-(3-(pyrrolidin-1-yl)propox)quinoline-4-yloxy)phenyl)-N^4-(2,4-dichlorobenzaldehyde)semicarbozone], the “U87MG IC50” value in assay [1] amounted to 1.9 mg/L. In assay [2], the “H460 IC50” value was 0.96 mg/L. The “MKN-45 IC50” value in assay [3] turned out to be 0.71 mg/L. Besides, the “MDA-MB-231 IC50” value in assay [4] stood at 1.2 mg/L. The “SMMC-7721 IC50” value in assay [5] is 0.97 mg/L. Further, the “HT-29 IC50” value in assay [6] turned out to be 1.4 mg/L.

Consider `COc1cc2c(Oc3ccc(NC(=S)NN=Cc4ccc(Cl)cc4Cl)cc3F)ccnc2cc1OCCCN1CCN(C)CC1` [Example 40, (E)-N^1-(3-fluoro-4-(6-methoxy-7-(3-(4-methyl-1-piperazinyl)propoxy)quinoline-4-yloxy)phenyl)-N^4-(2,4-dichlorobenzaldehyde)thiosemicarbazone], for which the “H460 IC50” value in assay [2] was found to be 2.8 mg/L. In assay [3], the “MKN-45 IC50” value worked out at 1.5 mg/L. In addition, the “MDA-MB-231 IC50” value in assay [4] came to 1.9 mg/L. In assay [5], the “SMMC-7721 IC50” value was 3.1 mg/L. Also, the “HT-29 IC50” value in assay [6] was 1.9 mg/L.

Turning to “(E)-N^1-(3-fluoro-4-(6-methoxy-7-(3-(piperidin-1-yl)propoxy)quinoline-4-yloxy)phenyl)-N^4-(2-chloro-4-fluorobenzaldehyde)thiosemicarbazone [Example 43]”, in assay [1], the “U87MG IC50” value came to 0.092 mg/L. Moreover, the “H460 IC50” value in assay [2] came out at 0.0067 mg/L. Further, in assay [4], the “MDA-MB-231 IC50” value is 0.0029 mg/L. Also, the “SMMC-7721 IC50” value in assay [5] amounted to 0.069 mg/L. In assay [6], the “HT-29 IC50” value is 0.0031 mg/L.

For the compound `CCC(=NNC(=O)Nc1ccc(Oc2ccnc3cc(OCCCN4CCCCC4)c(OC)cc23)c(F)c1)c1ccccc1` [Example 30, (E)-N^1-(3-fluoro-4-(6-methoxy-7-(3-(piperidin-1-yl)propoxy)quinoline-4-yloxy)phenyl)-N^4-(propiophenone)thiosemicarbazone], in assay [1], the “U87MG IC50” value was found to be 0.051 mg/L. The “H460 IC50” value in assay [2] was determined as 0.0012 mg/L. In addition, in assay [3], the “MKN-45 IC50” value stood at 0.0020 mg/L. Besides, in assay [4], the “MDA-MB-231 IC50” value was 0.0021 mg/L. Besides, in assay [5], the “SMMC-7721 IC50” value was 0.44 mg/L.

With `COc1cc2c(Oc3ccc(NC(=S)NN=Cc4ccc(F)cc4Cl)cc3F)ccnc2cc1OCCCN1CCN(C)CC1` [Example 42, (E)-N^1-(3-fluoro-4-(6-methoxy-7-(3-(4-methyl-1-piperazinyl)propoxy)quinoline-4-yloxy)phenyl)-N^4-(2-chloro-4-fluorobenzaldehyde)thiosemicarbazone], the “U87MG IC50” value in assay [1] was 1.0 mg/L. In addition, the “H460 IC50” value in assay [2] was found to be 0.38 mg/L. For the same compound, the “MKN-45 IC50” value in assay [3] stood at 0.34 mg/L. In addition, the “MDA-MB-231 IC50” value in assay [4] worked out at 0.29 mg/L. Moreover, in assay [5], the “SMMC-7721 IC50” value stood at 0.96 mg/L.

For the compound “(E)-N^1-(3-fluoro-4-(6-methoxy-7-(3-(morpholin-4-yl)propoxy)quinoline-4-oxy)phenyl)-N^4-(3,4-difluorobenzaldehyde)semicarbazone [Example 23]”, the “U87MG IC50” value in assay [1] amounted to 5.6 mg/L. Further, the “H460 IC50” value in assay [2] stood at 3.6 mg/L. In addition, the “MKN-45 IC50” value in assay [3] amounted to 5.7 mg/L. For the same compound, the “MDA-MB-231 IC50” value in assay [4] was 2.9 mg/L. For the same compound, in assay [5], the “SMMC-7721 IC50” value stood at 5.9 mg/L.

Source of the values: patent US9783499B2, “Quinoline derivatives and their applications” (Shenyang Pharmaceutical University, priority 2012, dated 2017).
